{"source": "patent US11826368B2", "about": "(DAEGU GYEONGBUK INSTITUTE OF SCIENCE AND TECHNOLOGY, priority 2018, dated 2023)", "system": "BV2 microglial cells", "assay": "MTT assay for cytotoxicity toward BV2 microglial cells", "type": "cell-based", "settings": "24 hours", "description": "Cell viability was assessed using the 3-(4,5-dimethylthiazol-2-yl)-2,5-diphenyltetrazolium bromide (MTT) assay. […] The cells were then treated with 0.5 mg/ml MTT and incubated for 3 hours at 37° C. in a 5% CO2 incubator. Absorbance was read at 580 nm.", "data": [{"smiles": "C=CC(=O)N1CCC[C@@H](n2nc(-c3ccc(Oc4ccccc4)cc3)c3c(N)ncnc32)C1", "note": "[ibrutinib]", "values": [{"measurement": "cytotoxicity in BV2 microglial cells", "setting": "50 μM", "value": "cell death was detected"}, {"measurement": "cytotoxicity in BV2 microglial cells", "setting": "concentrations up to 25 μM", "value": "did not induce cytotoxicity"}]}]}
